For 26 molecules, IC50 results are on record in US10221177B2 (HYDRA BIOSCIENCES, INC., priority 2014, dated 2019).

Sequence of human TRPA1 (O75762 whole entry, the tested form may be a part): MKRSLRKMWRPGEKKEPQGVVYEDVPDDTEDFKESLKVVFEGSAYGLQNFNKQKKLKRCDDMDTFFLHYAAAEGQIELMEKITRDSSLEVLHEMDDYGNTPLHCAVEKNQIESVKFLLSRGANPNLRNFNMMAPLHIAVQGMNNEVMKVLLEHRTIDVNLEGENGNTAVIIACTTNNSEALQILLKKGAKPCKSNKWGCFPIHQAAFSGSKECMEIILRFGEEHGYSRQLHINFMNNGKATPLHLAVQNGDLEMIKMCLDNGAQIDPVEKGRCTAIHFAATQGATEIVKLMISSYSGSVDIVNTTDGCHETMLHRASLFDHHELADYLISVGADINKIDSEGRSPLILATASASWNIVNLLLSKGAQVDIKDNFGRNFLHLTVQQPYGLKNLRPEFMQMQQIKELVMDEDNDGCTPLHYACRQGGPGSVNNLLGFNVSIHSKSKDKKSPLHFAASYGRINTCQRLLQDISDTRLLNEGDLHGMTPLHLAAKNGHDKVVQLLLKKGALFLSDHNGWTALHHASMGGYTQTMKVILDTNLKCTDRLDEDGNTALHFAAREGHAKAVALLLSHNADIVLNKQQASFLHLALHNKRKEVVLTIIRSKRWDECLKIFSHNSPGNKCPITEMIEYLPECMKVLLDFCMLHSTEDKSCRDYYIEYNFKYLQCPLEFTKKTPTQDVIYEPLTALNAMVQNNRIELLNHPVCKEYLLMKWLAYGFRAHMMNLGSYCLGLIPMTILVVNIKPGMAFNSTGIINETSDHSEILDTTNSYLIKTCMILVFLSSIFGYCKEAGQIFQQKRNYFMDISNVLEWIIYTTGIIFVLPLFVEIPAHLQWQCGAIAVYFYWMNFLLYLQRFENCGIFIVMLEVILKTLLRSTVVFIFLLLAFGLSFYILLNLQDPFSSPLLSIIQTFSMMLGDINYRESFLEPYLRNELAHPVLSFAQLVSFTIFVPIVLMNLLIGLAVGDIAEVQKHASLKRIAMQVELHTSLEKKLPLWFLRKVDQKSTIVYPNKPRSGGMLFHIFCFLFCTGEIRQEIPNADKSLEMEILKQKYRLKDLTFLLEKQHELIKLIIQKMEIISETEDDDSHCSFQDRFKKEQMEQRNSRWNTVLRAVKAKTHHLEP

The experiment has as its target human TRPA1 (Homo sapiens (Human), UniProt O75762). As to the kind of experiment: In vitro inhibition of human TRPA1, whole cell patch configuration. It is filed as cell-based. The following applies: current activation 10 μM AITC, tested concentrations 320 pM to 3.2 μM, read-out: hTRPA1 IC50. In outline:
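Compound antagonism measured from voltage ramps (±100 or ±80 mV, 400 ms, every 4 s from −40 mV), analysed at −80 and 80 mV, or at constant −60 mV. HEPES-buffered NaCl bath, pH 7.4, EGTA or 2 mM Ca2+; temperature set by perfusion, within ±2° C; no junction-potential correction.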
Turning to `CCC(=O)Cn1c(=O)c2c(ncn2[C@@H](C)C(=O)Nc2csc(-c3ccc(N4CC5C(C4)C5(F)F)nc3)n2)n(C)c1=O` (stereo partly drawn) [Compound 80, (2S)—N-(2-(6-(6,6-difluoro-3-azabicyclo[3.1.0]hexan-3-yl)pyridin-3-yl)thiazol-4-yl)-2-(3-methyl-2,6-dioxo-1-(2-oxobutyl)-2,3-dihydro-1H-purin-7(6H)-yl)propanamide], the IC50 is 1 nM. The same measure for `CC(=O)Cn1c(=O)c2c(ncn2[C@@H](C)C(=O)Nc2csc(-c3cnc(C)c(Cl)c3)n2)n(C)c1=O` [Compound 81, (S)—N-(2-(5-chloro-6-methylpyridin-3-yl)thiazol-4-yl)-2-(3-methyl-2,6-dioxo-1-(2-oxopropyl)-2,3-dihydro-1H-purin-7(6H)-yl)propanamide]: 10 nM; for `CC(=O)Cn1c(=O)c2c(ncn2[C@@H](C)C(=O)Nc2csc(-c3cnc(C(F)(F)F)c(C)c3)n2)n(C)c1=O` [Compound 82, (S)-2-(3-methyl-2,6-dioxo-1-(2-oxopropyl)-2,3-dihydro-1H-purin-7(6H)-yl)-N-(2-(5-methyl-6-(trifluoromethyl)pyridin-3-yl)thiazol-4-yl)propanamide]: 5 nM. The same measure for `CCC(=O)Cn1c(=O)c2c(ncn2[C@@H](C)C(=O)Nc2csc(-c3cnc(C(F)(F)F)c(C)c3)n2)n(C)c1=O` [Compound 83, (S)-2-(3-methyl-2,6-dioxo-1-(2-oxobutyl)-2,3-dihydro-1H-purin-7(6H)-yl)-N-(2-(5-methyl-6-(trifluoromethyl)pyridin-3-yl)thiazol-4-yl)propanamide]: 2 nM. The same measure for `CCC(=O)Cn1c(=O)c2c(ncn2[C@@H](C)C(=O)Nc2cncc(-c3ccc(N4CC5C(C4)C5(F)F)nc3)n2)n(C)c1=O` (stereo partly drawn) [Compound 84, (2S)—N-(6-(6-(6,6-difluoro-3-azabicyclo[3.1.0]hexan-3-yl)pyridin-3-yl)pyrazin-2-yl)-2-(3-methyl-2,6-dioxo-1-(2-oxobutyl)-2,3-dihydro-1H-purin-7(6H)-yl)propanamide]: 4 nM; for `Cc1cc(Cn2c(=O)c3c(ncn3[C@@H](C)C(=O)Nc3ccnc(-c4cnc(C(F)(F)F)c(C)c4)n3)n(C)c2=O)no1` [Compound 85, (S)-2-(3-methyl-1-((5-methylisoxazol-3-yl)methyl)-2,6-dioxo-2,3-dihydro-1H-purin-7(6H)-yl)-N-(2-(5-methyl-6-(trifluoromethyl)pyridin-3-yl)pyrimidin-4-yl)propanamide]: 3 nM; for `CNC(=O)Cn1c(=O)c2c(ncn2[C@@H](C)C(=O)Nc2cccc(-c3cnc(C(F)(F)F)nc3)n2)n(C)c1=O` [Compound 87, (S)-2-(3-methyl-1-(2-(methylamino)-2-oxoethyl)-2,6-dioxo-2,3-dihydro-1H-purin-7(6H)-yl)-N-(6-(2-(trifluoromethyl)pyrimidin-5-yl)pyridin-2-yl)propanamide]: 258 nM. Turning to `C[C@@H](C(=O)Nc1cccc(-c2cnc(C(F)(F)F)nc2)n1)n1cnc2c1c(=O)n(CC1CCO1)c(=O)n2C` (stereo partly drawn) [Compound 88, (2S)-2-(3-methyl-1-(oxetan-2-ylmethyl)-2,6-dioxo-2,3-dihydro-1H-purin-7(6H)-yl)-N-(6-(2-(trifluoromethyl)pyrimidin-5-yl)pyridin-2-yl)propanamide], the half-inhibitory concentration (IC50) is 894 nM. The same measure for `CCC(=O)Cn1c(=O)c2c(ncn2[C@@H](C)C(=O)Nc2csc(-c3cnc(C)c(Cl)c3)n2)n(C)c1=O` [Compound 90]: 3 nM; for `Cc1cc(Cn2c(=O)c3c(ncn3[C@@H](C)C(=O)Nc3csc(-c4cnc(C)c(Cl)c4)n3)n(C)c2=O)no1` [Compound 91]: 2 nM; for `CC(=O)Cn1c(=O)c2c(ncn2[C@@H](C)C(=O)Nc2csc(-c3cnc(C)c(F)c3)n2)n(C)c1=O` [Compound 92, (S)—N-(2-(5-fluoro-6-methylpyridin-3-yl)thiazol-4-yl)-2-(3-methyl-2,6-dioxo-1-(2-oxopropyl)-2,3-dihydro-1H-purin-7(6H)-yl)propanamide]: 33 nM.

Turning to `Cc1cc(Cn2c(=O)c3c(ncn3[C@@H](C)C(=O)Nc3cccc(-c4nc(=O)o[nH]4)n3)n(C)c2=O)no1` [Compound 93, (S)-2-(3-methyl-1-((5-methylisoxazol-3-yl)methyl)-2,6-dioxo-2,3-dihydro-1H-purin-7(6H)-yl)-N-(6-(5-oxo-2,5-dihydro-1,2,4-oxadiazol-3-yl)pyridin-2-yl)propanamide], the IC50 was > 3200 nM. The same measure for `Cc1cc(Cn2c(=O)c3c(ncn3[C@@H](C)C(=O)Nc3csc(-c4cnc(C(F)(F)F)c(C)c4)n3)n(C)c2=O)no1` [Compound 94, (S)-2-(3-methyl-1-((5-methylisoxazol-3-yl)methyl)-2,6-dioxo-2,3-dihydro-1H-purin-7(6H)-yl)-N-(2-(5-methyl-6-(trifluoromethyl)pyridin-3-yl)thiazol-4-yl)propanamide]: 3 nM; for `C[C@@H](C(=O)Nc1cccc(-c2ccc(C(F)(F)F)nc2)n1)n1cnc2c1c(=O)n(Cc1ccon1)c(=O)n2C` [Compound 95, (S)-2-(1-(isoxazol-3-ylmethyl)-3-methyl-2,6-dioxo-2,3-dihydro-1H-purin-7(6H)-yl)-N-(6′-(trifluoromethyl)-[2,3′-bipyridin]-6-yl)propanamide]: 9 nM; for `Cc1cc(Cn2c(=O)c3c(ncn3[C@@H](C)C(=O)Nc3cncc(-c4cnc(N5CCC[C@H]5C(F)(F)F)nc4)n3)n(C)c2=O)no1` [Compound 96, (S)-2-(3-methyl-1-((5-methylisoxazol-3-yl)methyl)-2,6-dioxo-2,3-dihydro-1H-purin-7(6H)-yl)-N-(6-(2-((S)-2-(trifluoromethyl)pyrrolidin-1-yl)pyrimidin-5-yl)pyrazin-2-yl)propanamide]: 2 nM.

With `CC(=O)Cn1c(=O)c2c(ncn2[C@@H](C)C(=O)Nc2csc(-c3cnc(C)c(C(F)(F)F)c3)n2)n(C)c1=O` [Compound 98, (S)-2-(3-methyl-2,6-dioxo-1-(2-oxopropyl)-2,3-dihydro-1H-purin-7(6H)-yl)-N-(2-(6-methyl-5-(trifluoromethyl)pyridin-3-yl)thiazol-4-yl)propanamide], the IC50 turned out to be 3 nM. In the case of `CCC(=O)Cn1c(=O)c2c(ncn2[C@@H](C)C(=O)Nc2csc(-c3cnc(C)c(C(F)(F)F)c3)n2)n(C)c1=O` [Compound 99, (S)-2-(3-methyl-2,6-dioxo-1-(2-oxobutyl)-2,3-dihydro-1H-purin-7(6H)-yl)-N-(2-(6-methyl-5-(trifluoromethyl)pyridin-3-yl)thiazol-4-yl)propanamide], the IC50 worked out at 1 nM. The same measure for `Cc1cc(Cn2c(=O)c3c(ncn3[C@@H](C)C(=O)Nc3csc(-c4cnc(C)c(F)c4)n3)n(C)c2=O)no1` [Compound 100, (S)—N-(2-(5-fluoro-6-methylpyridin-3-yl)thiazol-4-yl)-2-(3-methyl-1-((5-methylisoxazol-3-yl)methyl)-2,6-dioxo-2,3-dihydro-1H-purin-7(6H)-yl)propanamide]: 8 nM; for `CCC(=O)Cn1c(=O)c2c(ncn2[C@@H](C)C(=O)Nc2csc(-c3cnc(C)c(F)c3)n2)n(C)c1=O` [Compound 101, (S)—N-(2-(5-fluoro-6-methylpyridin-3-yl)thiazol-4-yl)-2-(3-methyl-2,6-dioxo-1-(2-oxobutyl)-2,3-dihydro-1H-purin-7(6H)-yl)propanamide]: 12 nM; for `Cc1noc(Cn2c(=O)c3c(ncn3[C@@H](C)C(=O)Nc3csc(-c4cnc(C(F)(F)F)c(C)c4)n3)n(C)c2=O)n1` [Compound 107, (S)-2-(3-methyl-1-((3-methyl-1,2,4-oxadiazol-5-yl)methyl)-2,6-dioxo-2,3-dihydro-1H-purin-7(6H)-yl)-N-(2-(5-methyl-6-(trifluoromethyl)pyridin-3-yl)thiazol-4-yl)propanamide]: 1 nM. To `Cc1noc(Cn2c(=O)c3c(ncn3[C@@H](C)C(=O)Nc3csc(-c4cnc(C)c(C(F)(F)F)c4)n3)n(C)c2=O)n1` [Compound 108, (S)-2-(3-methyl-1-((3-methyl-1,2,4-oxadiazol-5-yl)methyl)-2,6-dioxo-2,3-dihydro-1H-purin-7(6H)-yl)-N-(2-(6-methyl-5-(trifluoromethyl)pyridin-3-yl)thiazol-4-yl)propanamide] belongs 1 nM. To `CC(=O)Cn1c(=O)c2c(ncn2[C@@H](C)C(=O)Nc2cncc(-c3cnc(C)c(C(F)(F)F)c3)n2)n(C)c1=O` [Compound 109, (S)-2-(3-methyl-2,6-dioxo-1-(2-oxopropyl)-2,3-dihydro-1H-purin-7(6H)-yl)-N-(6-(6-methyl-5-(trifluoromethyl)pyridin-3-yl)pyrazin-2-yl)propanamide] belongs 8 nM. Take `Cc1cc(Cn2c(=O)c3c(ncn3[C@@H](C)C(=O)Nc3ccnc(-c4cnc(C)c(C(F)(F)F)c4)n3)n(C)c2=O)no1` [Compound 110, (S)-2-(3-methyl-1-((5-methylisoxazol-3-yl)methyl)-2,6-dioxo-2,3-dihydro-1H-purin-7(6H)-yl)-N-(2-(6-methyl-5-(trifluoromethyl)pyridin-3-yl)pyrimidin-4-yl)propanamide]: the IC50 is 1 nM. To `CC(=O)Cn1c(=O)c2c(ncn2[C@@H](C)C(=O)Nc2ccnc(-c3cnc(C)c(C(F)(F)F)c3)n2)n(C)c1=O` [Compound 111] belongs 3 nM. To `Cc1cc(Cn2c(=O)c3c(ncn3[C@@H](C)C(=O)Nc3csc(-c4cnc(C)c(C(F)(F)F)c4)n3)n(C)c2=O)no1` [Compound 112, (S)-2-(3-methyl-1-((5-methylisoxazol-3-yl)methyl)-2,6-dioxo-2,3-dihydro-1H-purin-7(6H)-yl)-N-(2-(6-methyl-5-(trifluoromethyl)pyridin-3-yl)thiazol-4-yl)propanamide] belongs 1 nM. The same measure for `CCC(=O)Cn1c(=O)c2c(ncn2[C@@H](C)C(=O)Nc2cccc(-c3cnc(N4CC5CC5C4)cn3)n2)n(C)c1=O` (stereo partly drawn) [Compound 113, (2S)—N-(6-(5-(3-azabicyclo[3.1.0]hexan-3-yl)pyrazin-2-yl)pyridin-2-yl)-2-(3-methyl-2,6-dioxo-1-(2-oxobutyl)-2,3-dihydro-1H-purin-7(6H)-yl)propanamide]: 2 nM.
